US20040127512A1, “Method of treating symptoms of non-constipated irritable bowel syndrome” (Bradley Pharmaceuticals, Inc., priority 2002, published 2004)

Experiments:
[1] = following oral administration; cited from earlier work
[2] = clinical study of oral methscopolamine bromide as antispasmodic medication in colonoscopy; type: in vivo; details: 10 mg oral one hour before colonoscopy; 25 patients; control subjects 30%
Method: A clinical study was undertaken with oral methscopolamine bromide as an antispasmodic medication in colonoscopy. The study comprised of 40 non-randomized patients. Thirty patients were given oral methscopolamine bromide prior to the procedure. […] The dose was increased to 10 mg for the following 25 patients. For the purpose of the study, in terms of spasm control a “success” was defined as a colonoscopy where there was no significant spasm on insertion and no intravenous Buscopan® was required. A failure was defined as the requirement of intravenous Buscopan® (antispasmodic). […] The study had both male and female patients.

[3] = in vivo; cited from earlier work

## C[N+]1(C)[C@@H]2C[C@@H](OC(=O)[C@H](CO)c3ccccc3)C[C@H]1[C@@H]1O[C@@H]12 [methscopolamine bromide]
[1]
  time until drug effects appear: about one
[2]
  patients with minimal or no spasm: 64%
[3]
  ability to cross the blood-brain-barrier: limited ability to cross the blood-brain-barrier
  route of excretion: excreted primarily in the urine and bile, or as unabsorbed drug in feces
